Data taken from patent publication US9420797B2, “Method for preparing biocidal aqueous compositions” (BROMINE COMPOUNDS LTD., priority 2012, dated 2016).

Assays:
[1] = test system: Pseudomonas aeruginosa (ATCC 15442) entrapped in alginate gel beads; assay: Biocidal activity against simulated biofilm (bacteria entrapped in alginate gel beads), surviving CFU; conditions: contact time 24 hours, count at time 0 1.40E+07
[2] = test system: Inoculum of bacteria (Activated sludge taken from Domestic Waste Water treatment Plant—Haifa); assay: Microbial efficacy (% kill) under different TOC loading, activated sludge bacteria, pour plate count on R2A agar; assay type: cell-based; conditions: contact time 30 min, pH 7
Excerpt: Inoculum of bacteria (Activated sludge taken from Domestic Waste Water treatment Plant-Haifa). R2A agar for general counting. Tryptone, in amounts of either 0.025, or 0.119 or 0.239 g solid tryptone, was weighed and dissolved in 1 liter of buffer. Neutralization solution (NaHSO4). Chlorourea solution, prepared from aq. urea hydrochloride (consisting of 5.8% HCl and 38.2% urea, Wt %) and a 12.9% aq NaOCl as Cl2, Wt %); Urea, HCl:NaOCl 4:1:1 molar ratio. The biocidal efficacy of the antifouling composition at different organic loads of 0, 10, 30 and 50 ppm TOC, was examined under different biocidal concentrations (2.5, 5 and 10 ppm) at pH 7. 1) 1 ml of inoculum was added to tryptone solutions (placed in 3 erlenmeyer flasks, 100 ml each, with different concentrations of TOC-0, 10, 30 and 50 ppm). 2) 1 ml of each sample was inoculated on […] agar (pour plate method). The result stands for the bacteria count at zero time. 3) For each of the tryptone concentrations (0, 10, 30, 50 ppm TOC) an inoculum of bacteria (1 ml) and the appropriate biocide concentration were added. 4) After 30 and 60 min. of shaking (100 rpm), 1 ml of each sample was transferred to a tube filled with 9 ml of the neutralization solution. An aliquot of 1 ml was taken from this solution and added to another tube containing 9 ml of buffer solution. The solution was mixed under vortex. This operation was repeated 4 more times. 5) 1 ml from the two lowest dilutions was inoculated on a […] agar (by the pour plate method). 6) After the plates were incubated at 25° C. for 5-7 days, the bacteria count was recorded.

OCl [NaOCl, sodium hypochlorite]
survival of bacteria (CFU) ([1]; biocide 0.5 ppm as Cl2): 3.6E+06 CFU
survival of bacteria (CFU) ([1]; biocide 1 ppm as Cl2): 2.53E+06 CFU
survival of bacteria (CFU) ([1]; biocide 2.5 ppm as Cl2): 1.00E+00 CFU
survival of bacteria (CFU) ([1]; biocide 5 ppm as Cl2): 1.00E+00 CFU
% Kill ([2]; TOC 0 ppm, biocide 2.5 ppm as Cl2): 98.8%
% Kill ([2]; TOC 0 ppm, biocide 5 ppm as Cl2): 99.6%
% Kill ([2]; TOC 0 ppm, biocide 10 ppm as Cl2): 99.9%
% Kill ([2]; TOC 10 ppm, biocide 2.5 ppm as Cl2): 37.7%
% Kill ([2]; TOC 10 ppm, biocide 5 ppm as Cl2): 97.8%
% Kill ([2]; TOC 10 ppm, biocide 10 ppm as Cl2): 99.5%
% Kill ([2]; TOC 30 ppm, biocide 2.5 ppm as Cl2): 11.6%
% Kill ([2]; TOC 30 ppm, biocide 5 ppm as Cl2): 78.2%
% Kill ([2]; TOC 30 ppm, biocide 10 ppm as Cl2): 93.6%
% Kill ([2]; TOC 50 ppm, biocide 2.5 ppm as Cl2): 24.1%
% Kill ([2]; TOC 50 ppm, biocide 5 ppm as Cl2): 49.2%
% Kill ([2]; TOC 50 ppm, biocide 10 ppm as Cl2): 91.7%
